Common to all, as to type: biochemical
For one assay, the target named is BTK (Homo sapiens, UniProt Q06187). In words: BTK IC50 kinase inhibition assay.
A further assay has as its target T1, TXK (Homo sapiens, UniProt P42681).
T1 sequence (P42681 1-527): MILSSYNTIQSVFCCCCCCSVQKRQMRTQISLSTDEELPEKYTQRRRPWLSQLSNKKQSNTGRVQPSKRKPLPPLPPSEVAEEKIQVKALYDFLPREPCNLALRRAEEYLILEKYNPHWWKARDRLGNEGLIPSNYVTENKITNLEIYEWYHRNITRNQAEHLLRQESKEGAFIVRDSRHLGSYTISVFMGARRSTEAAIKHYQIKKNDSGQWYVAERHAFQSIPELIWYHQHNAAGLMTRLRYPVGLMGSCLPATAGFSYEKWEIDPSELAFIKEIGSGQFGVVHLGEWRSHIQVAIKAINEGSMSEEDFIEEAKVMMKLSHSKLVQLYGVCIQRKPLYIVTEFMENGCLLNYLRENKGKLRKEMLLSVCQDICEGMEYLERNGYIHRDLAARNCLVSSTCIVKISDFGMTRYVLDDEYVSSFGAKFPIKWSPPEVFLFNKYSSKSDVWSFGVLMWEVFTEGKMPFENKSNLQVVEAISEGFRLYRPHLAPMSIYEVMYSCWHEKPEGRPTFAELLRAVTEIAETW
In words: TXK IC50 kinase inhibition assay.

Another assay addresses T2, JAK3 (Homo sapiens, UniProt P52333).
T2 sequence (P52333 1-1124): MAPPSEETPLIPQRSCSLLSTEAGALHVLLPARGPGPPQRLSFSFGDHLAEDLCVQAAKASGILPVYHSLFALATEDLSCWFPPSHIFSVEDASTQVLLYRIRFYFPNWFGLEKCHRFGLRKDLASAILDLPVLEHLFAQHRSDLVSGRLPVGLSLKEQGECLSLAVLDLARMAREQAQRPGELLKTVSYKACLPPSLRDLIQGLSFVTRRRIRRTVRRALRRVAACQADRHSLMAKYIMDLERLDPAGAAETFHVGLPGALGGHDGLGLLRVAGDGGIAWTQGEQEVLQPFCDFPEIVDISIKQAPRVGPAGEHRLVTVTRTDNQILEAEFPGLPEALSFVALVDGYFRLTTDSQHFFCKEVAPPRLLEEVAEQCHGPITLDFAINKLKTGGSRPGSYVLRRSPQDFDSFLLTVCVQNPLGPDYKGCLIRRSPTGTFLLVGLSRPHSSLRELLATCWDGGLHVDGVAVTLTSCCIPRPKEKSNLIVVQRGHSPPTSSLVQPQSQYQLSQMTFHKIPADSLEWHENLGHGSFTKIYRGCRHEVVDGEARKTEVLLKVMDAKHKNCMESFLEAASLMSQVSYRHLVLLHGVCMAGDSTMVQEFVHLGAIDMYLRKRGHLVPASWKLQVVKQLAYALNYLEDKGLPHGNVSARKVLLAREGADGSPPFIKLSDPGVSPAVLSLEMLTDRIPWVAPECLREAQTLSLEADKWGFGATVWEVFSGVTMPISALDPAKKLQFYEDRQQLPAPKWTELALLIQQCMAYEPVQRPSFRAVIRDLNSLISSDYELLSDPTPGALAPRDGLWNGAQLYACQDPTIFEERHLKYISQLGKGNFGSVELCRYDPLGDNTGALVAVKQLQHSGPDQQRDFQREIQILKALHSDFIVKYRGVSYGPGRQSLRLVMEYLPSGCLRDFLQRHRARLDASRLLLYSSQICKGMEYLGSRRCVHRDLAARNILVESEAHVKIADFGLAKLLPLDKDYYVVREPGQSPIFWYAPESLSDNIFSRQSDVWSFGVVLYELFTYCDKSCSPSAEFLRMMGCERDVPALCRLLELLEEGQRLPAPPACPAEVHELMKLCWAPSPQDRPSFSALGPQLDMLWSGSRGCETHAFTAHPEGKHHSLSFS
The assay is described as follows: JAK3 IC50 kinase inhibition assay.

A further assay deals with T3, ITK (Homo sapiens, UniProt Q08881).
T3 sequence (Q08881 1-620): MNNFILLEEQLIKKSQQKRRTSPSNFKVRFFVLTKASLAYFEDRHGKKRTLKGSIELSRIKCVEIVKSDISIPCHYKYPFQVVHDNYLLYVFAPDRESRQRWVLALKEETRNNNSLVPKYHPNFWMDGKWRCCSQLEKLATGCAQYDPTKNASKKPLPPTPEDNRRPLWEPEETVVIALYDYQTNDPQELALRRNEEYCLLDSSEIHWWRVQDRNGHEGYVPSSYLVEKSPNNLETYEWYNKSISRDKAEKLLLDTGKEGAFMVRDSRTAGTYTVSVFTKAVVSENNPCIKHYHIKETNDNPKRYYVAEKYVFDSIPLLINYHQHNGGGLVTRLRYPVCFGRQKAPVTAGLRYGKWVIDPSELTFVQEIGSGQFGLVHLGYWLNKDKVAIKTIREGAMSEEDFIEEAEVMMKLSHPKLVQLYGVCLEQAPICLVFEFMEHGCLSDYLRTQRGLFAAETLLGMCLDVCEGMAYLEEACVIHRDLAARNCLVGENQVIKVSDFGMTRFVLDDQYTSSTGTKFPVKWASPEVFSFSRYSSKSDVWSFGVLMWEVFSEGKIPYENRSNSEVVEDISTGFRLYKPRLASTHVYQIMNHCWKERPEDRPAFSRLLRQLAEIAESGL
In words: ITK IC50 kinase inhibition assay.

The structures appear in SMILES notation. Bounds are passed on as bounds.

The IC50 is the point on the concentration scale where inhibition reaches its midpoint.

BTK, sequence (Q06187 whole entry): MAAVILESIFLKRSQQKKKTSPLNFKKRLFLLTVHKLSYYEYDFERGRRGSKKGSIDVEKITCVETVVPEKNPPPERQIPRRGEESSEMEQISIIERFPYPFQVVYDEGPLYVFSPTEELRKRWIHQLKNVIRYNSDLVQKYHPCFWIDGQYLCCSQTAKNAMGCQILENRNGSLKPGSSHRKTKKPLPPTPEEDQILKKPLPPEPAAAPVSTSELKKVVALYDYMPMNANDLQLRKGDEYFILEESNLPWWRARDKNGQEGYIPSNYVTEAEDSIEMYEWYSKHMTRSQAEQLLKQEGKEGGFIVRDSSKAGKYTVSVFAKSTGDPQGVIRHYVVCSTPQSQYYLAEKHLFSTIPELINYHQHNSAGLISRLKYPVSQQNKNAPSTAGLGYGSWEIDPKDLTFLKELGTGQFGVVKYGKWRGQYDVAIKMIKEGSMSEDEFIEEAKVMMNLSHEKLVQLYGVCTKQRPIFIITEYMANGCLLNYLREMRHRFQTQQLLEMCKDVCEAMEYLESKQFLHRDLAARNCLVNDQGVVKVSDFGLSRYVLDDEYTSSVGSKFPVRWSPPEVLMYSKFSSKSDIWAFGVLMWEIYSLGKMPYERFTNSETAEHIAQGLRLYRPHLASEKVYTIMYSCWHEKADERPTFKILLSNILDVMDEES

For `C=CC(=O)N1CC(Cn2nc(-c3ccc(Oc4ccccc4)cc3)c3cncnc32)C1` [Compound A35, 1-(3-((3-(4-phenoxyphenyl)-1H-pyrazolo[3,4-d]pyrimidin-1-yl)methyl)azetidin-1-yl)prop-2-en-1-one], the IC50 against BTK is under 100 nM; against TXK, 100 to 500 nM; on JAK3, over 500 nM; at ITK, over 500 nM.
Consider `C=CC(=O)N1CCC(n2nc(-c3ccc(Oc4ccccc4)cc3)c3cncnc32)CC1` [Compound A36, 1-(4-(3-(4-phenoxyphenyl)-1H-pyrazolo[3,4-d]pyrimidin-1-yl)piperidin-1-yl)prop-2-en-1-one], for which the half-maximal inhibitory concentration (IC50) on BTK was 100 to 500 nM; on TXK it was 100 to 500 nM; against JAK3, over 500 nM; against ITK, over 500 nM.
On to `C=CC(=O)N1CC2(CC(n3nc(-c4ccc(Oc5ccccc5)cc4)c4cncnc43)C2)C1` [Compound A37, 1-(6-(3-(4-phenoxyphenyl)-1H-pyrazolo[3,4-d]pyrimidin-1-yl)-2-azaspiro[3.3]heptan-2-yl)prop-2-en-1-one], for which the IC50 against BTK was under 100 nM; at TXK it was 100 to 500 nM; against JAK3 it was over 500 nM; on ITK, over 500 nM.
`C=CC(=O)Nc1ccccc1Cn1nc(-c2ccc(Oc3ccccc3)cc2)c2cncnc21` [Compound A38, N-(2-((3-(4-phenoxyphenyl)-1H-pyrazolo[3,4-d]pyrimidin-1-yl)methyl)phenyl)acrylamide]: the IC50 is under 100 nM at BTK, under 100 nM at TXK, over 500 nM on JAK3 and over 500 nM against ITK.
`C=CC(=O)N1CCC[C@@H](n2nc(-c3ccc(Oc4cccc(F)c4)cc3)c3cncnc32)C1` [Compound A39, (R)-1-(3-(3-(4-(3-fluorophenoxy)phenyl)-1H-pyrazolo[3,4-d]pyrimidin-1-yl)piperidin-1-yl)prop-2-en-1-one]: the IC50 is under 100 nM on BTK, under 100 nM against TXK, over 500 nM at JAK3 and over 500 nM on ITK.
Take `C=CC(=O)N1CCC[C@@H](n2nc(-c3ccc(Oc4ccccc4F)cc3)c3cncnc32)C1` [Compound A40, (R)-1-(3-(3-(4-(2-fluorophenoxy)phenyl)-1H-pyrazolo[3,4-d]pyrimidin-1-yl)piperidin-1-yl)prop-2-en-1-one]: the 50% inhibitory concentration (IC50) at BTK is under 100 nM; at TXK, under 100 nM; against JAK3, over 500 nM; at ITK, over 500 nM.
`C=CC(=O)N1CC(F)(F)C[C@H]1Cn1nc(-c2ccc(Oc3ccccc3)cc2)c2cncnc21` [Compound A41, (S)-1-(4,4-difluoro-2-((3-(4-phenoxyphenyl)-1H-pyrazolo[3,4-d]pyrimidin-1-yl)methyl)pyrrolidin-1-yl)prop-2-en-1-one]: the IC50 was under 100 nM against BTK, under 100 nM against TXK, over 500 nM on JAK3 and over 500 nM against ITK.
With `C=CC(=O)NCCn1nc(-c2ccc(Oc3ccccc3)cc2)c2cncnc21` [Compound A42, N-(2-(3-(4-phenoxyphenyl)-1H-pyrazolo[3,4-d]pyrimidin-1-yl)ethyl)acrylamide], the 50% inhibitory concentration (IC50) against BTK was 100 to 500 nM; at TXK, over 500 nM; against JAK3 it was over 500 nM; on ITK, over 500 nM.
`C=CC(=O)N[C@@H](C)Cn1nc(-c2ccc(Oc3ccccc3)cc2)c2cncnc21` [Compound A43, (S)—N-(1-(3-(4-phenoxyphenyl)-1H-pyrazolo[3,4-d]pyrimidin-1-yl)propan-2-yl)acrylamide]: the half-maximal inhibitory concentration (IC50) on BTK was under 100 nM; against TXK, 100 to 500 nM; on JAK3, over 500 nM; at ITK, over 500 nM.
On to `C=CC(=O)N1CCCC[C@H]1Cn1nc(-c2ccc(Oc3ccccc3)cc2)c2cncnc21` [Compound A44, (S)-1-(2-((3-(4-phenoxyphenyl)-1H-pyrazolo[3,4-d]pyrimidin-1-yl)methyl)piperidin-1-yl)prop-2-en-1-one], for which the concentration for half-maximal inhibition (IC50) against BTK was under 100 nM; against TXK, 100 to 500 nM; against JAK3 it was over 500 nM; against ITK it was over 500 nM.
With `C=CC(=O)N1CCC[C@@]1(C)Cn1nc(-c2ccc(Oc3ccccc3)cc2)c2cncnc21` [Compound A45, (S)-1-(2-methyl-2-((3-(4-phenoxyphenyl)-1H-pyrazolo[3,4-d]pyrimidin-1-yl)methyl)pyrrolidin-1-yl)prop-2-en-1-one], the IC50 against BTK was under 100 nM; at TXK, under 100 nM; against JAK3, over 500 nM; against ITK, over 500 nM.
As for `C=CC(=O)N1CCC[C@H]1Cn1nc(-c2ccc(Oc3cccc(CC)c3)cc2)c2cncnc21` [Compound A46, (S)-1-(2-((3-(4-(3-ethylphenoxy)phenyl)-1H-pyrazolo[3,4-d]pyrimidin-1-yl)methyl)pyrrolidin-1-yl)prop-2-en-1-one], the 50% inhibitory concentration (IC50) on BTK was under 100 nM; on TXK it was under 100 nM; on JAK3 it was over 500 nM; on ITK, over 500 nM.
For the compound `C=CC(=O)N1CCC[C@H]1Cn1nc(-c2ccc(Oc3cccc(C(F)F)c3)cc2)c2cncnc21` [Compound A47, (S)-1-(2-((3-(4-(3-(difluoromethyl)phenoxy)phenyl)-1H-pyrazolo[3,4-d]pyrimidin-1-yl)methyl)pyrrolidin-1-yl)prop-2-en-1-one], the IC50 is under 100 nM against BTK, under 100 nM at TXK, over 500 nM at JAK3 and over 500 nM against ITK.
With `C=CC(=O)N1CCC[C@H]1Cn1nc(-c2ccc(Oc3cccc(C)c3)cc2)c2cncnc21` [Compound A48, (S)-1-(2-((3-(4-(m-tolyloxy)phenyl)-1H-pyrazolo[3,4-d]pyrimidin-1-yl)methyl)pyrrolidin-1-yl)prop-2-en-1-one], the IC50 on BTK is under 100 nM; against TXK, under 100 nM; against JAK3, over 500 nM; at ITK it was over 500 nM.
Turning to `C=CC(=O)N1CC(C)(C)C[C@H]1Cn1nc(-c2ccc(Oc3ccccc3)cc2)c2cncnc21` [Compound A49, (S)-1-(4,4-dimethyl-2-((3-(4-phenoxyphenyl)-1H-pyrazolo[3,4-d]pyrimidin-1-yl)methyl)pyrrolidin-1-yl)prop-2-en-1-one], the concentration for half-maximal inhibition (IC50) against BTK was under 100 nM; against TXK, under 100 nM; at JAK3, over 500 nM; on ITK it was over 500 nM.

Source of the values: patent US10870652B2, “Compounds and methods for modulating bruton's tyrosine kinase” (CORVUS PHARMACEUTICALS, INC., priority 2016, dated 2020).
